Source: PubChem BioAssay (NCI)
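Abbreviation: GI50, concentration required for 50% inhibition of growth. TGI: total growth inhibition.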

How the values were obtained:
Assay in all cases: DTP human tumour cell line panel, 384-well format
[1] = test system: OVCAR-4 ovarian
[2] = test system: OVCAR-5 ovarian
[3] = test system: SNB-19 CNS
[4] = test system: CAKI-1 renal
[5] = test system: SW-620 colon
[6] = test system: SK-MEL-5 melanoma
[7] = test system: BT-549 breast
[8] = test system: MOLT-4 leukemia
[9] = test system: TK-10 renal
[10] = test system: MALME-3M melanoma
[11] = test system: SF-268 CNS
[12] = test system: IGROV1 ovarian
[13] = test system: HCT-15 colon

CC1(N)CCN(c2cccnc2NC(=O)c2nc(-c3ncccc3C(F)(F)F)cnc2N)CC1
GI50 [1]: > 69.4 µM
TGI [1]: > 100 µM
GI50 [2]: 16.8 µM
TGI [2]: 48.1 µM
GI50 [3]: 27.8 µM
TGI [3]: > 76.7 µM
GI50 [4]: 6.11 µM
TGI [4]: 24.2 µM
GI50 [5]: 19.3 µM
TGI [5]: 60.6 µM
GI50 [6]: 18.2 µM
TGI [6]: 34.3 µM
GI50 [7]: 8.16 µM
TGI [7]: 20.6 µM
GI50 [8]: 12.8 µM
TGI [8]: 25.6 µM
GI50 [9]: 7.5 µM
TGI [9]: 26.1 µM
GI50 [10]: 14.8 µM
TGI [10]: 28.1 µM
GI50 [11]: 19.9 µM
TGI [11]: 47 µM
GI50 [12]: 3.28 µM
TGI [12]: 15 µM
GI50 [13]: 20.7 µM
TGI [13]: 56.3 µM
